The test system of the experiment is ovalbumin-induced pulmonary inflammation. The experiment in a line: Murine model of ovalbumin-induced pulmonary inflammation (BALF cell counts and mediators). Format: in vivo, mouse (female Balb/c). Conditions: for IL-5 levels in BALF: vs OVA group (FIG. 3). Here is the method:
A study was performed to investigate the effects of daily oral administration of the compound 2-((R)-3-(1-(1-((R)-1-(2,4-Dichlorophenyl)ethyl)-3-(cyano)-1H-pyrazolo[3,4-b]pyrazin-6-yl)azetidin-3-yl)piperidin-1-yl)ethan-1-ol (FLX-A-12) (disclosed in US Patent Publication 2018-0072740 published Mar. 15, 2018) and the compound (1R,3r)-3-((R)-3-(1-(5-chloro-4-(((R)-1-(2,4-dichlorophenyl)ethyl)amino)-6-methylpyrimidin-2-yl)azetidin-3-yl)piperidin-1-yl)-1-methylcyclobutane-1-carboxylic acid (FLX-B-10) (disclosed in Example 38 herein) on the level of lung eosinophilia in a murine model of ovalbumin-induced pulmonary inflammation. An automated system of haematological cellular analysis (DASIT Sysmex XT-2000iV) was used to perform total and differential cell counts and assess the degree of ovalbumin challenge-induced pulmonary eosinophilia. FLX-A-12 and FLX-B-10 were administered daily for five days at the doses of 50 and 30-100 mg/kg respectively, and eosinophilic inflammation was measured 24 hours after the last ovalbumin challenge. Dexamethasone was included as a positive reference substance (3 mg/kg p.o. daily). On days 20-23 inclusive, mice received vehicle (30% PG in water), reference compound (Dexamethasone, 3 mg/kg) and test compounds (FLX-A-12 at 50 mg/kg and FLX-B-10 at 30 and 100 mg/kg), 1 hr prior ovalbumin challenge via the p.o. route. In addition, the test compounds (FLX-A-12 and FLX-B-10) were dosed on day 19 24 hr prior to the dosing on day 20.
FLX-A-12 was formulated at the concentration of 5 mg/mL (corresponding to the dose of 50 mg/kg in a dose volume of 10 mL/kg) in 30% PG in water. The doses of FLX-B-10 (30 and 100 mg/kg) were prepared by dissolving 3 and 10 mg/ml of the compound respectively in 30% PG in water at a dose volume of 10 ml/kg. The dose of Dexamethasone (3 mg/kg) was prepared by dissolving 0.3 mg/mL of the compound in 30% PG in water at a dose volume of 10 ml/kg.
The effects of FLX-A-12 and FLX-B-10 were assessed in the ovalbumin mouse model of pulmonary inflammation. The study was performed in female Balb/c mice, and included the following 6 treatment groups (n=10/group): (i) Vehicle group: challenged with saline and dosed with compound Vehicle, 1 hr before challenge; (ii) OVA/Vehicle group (control): challenged with ovalbumin and dosed with compound Vehicle, 1 hr before challenge; (iii) OVA/FLX-A-12 50 mg/kg (p.o.): challenged with ovalbumin and dosed with FLX-A-12, 1 hr before challenge; (iv) OVA/FLX-B-10 30 mg/kg (p.o.): challenged with ovalbumin and dosed with FLX-B-10, 1 hr before challenge; (v) OVA/FLX-B-10 100 mg/kg (p.o.): challenged with ovalbumin and dosed with FLX-B-10, 1 hr before challenge; and (vi) Dexamethasone 3 mg/kg (p.o.) group: challenged with ovalbumin and dosed with Dexamethasone, 1 hr before challenge.
The eosinophilic inflammation induced by ovalbumin-challenge (i.n.) was measured as cell count increase in bronchoalveolar lavage fluid (BALF) using an automated system of haematological cellular analysis (DASIT Sysmex XT-2000iV) at 24 hours after the last OVA-challenge. The effects of the test compounds were evaluated as ability to decrease the eosinophilic inflammation with respect to the OVA group.
For antigen sensitization, on day 1, animals received 10 μg of OVA in 2 mg of Aluminium hydroxide hydrate (AlOH3) at a dose volume of 200 μl per mouse subcutaneously (s.c.). On day 14, all animals got a second (boost) s.c. injection with the same dose of Alum/OVA as above.
On days 20-23 inclusive, mice received vehicle, 30% PG in water, reference compound (Dexamethasone 3 mg/kg) and test compounds (FLX-A-12 at 50 mg/kg and FLX-B-10 at 30 and 100 mg/kg), 1 hr prior OVA challenge via the p.o. route. In addition, test compounds (FLX-A-12 and FLX-B-10) were dosed on day 19, 24 hr prior to the dosing on day 20. All compounds were administered at a dose volume of 10 ml/kg. Dose volumes were calculated based on individual animal weight. […]

SMILES strings stand for the structures.

Turning to `C[C@H](c1ccc(Cl)cc1Cl)n1nc(C#N)c2ncc(N3CC([C@H]4CCCN(CCO)C4)C3)nc21` [FLX-A-12, 2-((R)-3-(1-(1-((R)-1-(2,4-Dichlorophenyl)ethyl)-3-(cyano)-1H-pyrazolo[3,4-b]pyrazin-6-yl)azetidin-3-yl)piperidin-1-yl)ethan-1-ol, reference compound], under “50 mg/kg p.o.”, the “IL-5 levels in BALF” value is recorded as “significantly reduced”.

As for `Cc1nc(N2CC([C@H]3CCCN([C@H]4C[C@](C)(C(=O)O)C4)C3)C2)nc(N[C@H](C)c2ccc(Cl)cc2Cl)c1Cl` [FLX-B-10, (1R,3r)-3-((R)-3-(1-(5-chloro-4-(((R)-1-(2,4-dichlorophenyl)ethyl)amino)-6-methylpyrimidin-2-yl)azetidin-3-yl)piperidin-1-yl)-1-methylcyclobutane-1-carboxylic acid], the “CCL-22 in BALF” value (30 mg/kg p.o. (FIG. 6)) is on record as “significantly reduced in all conditions, except for FLX-B-10 at 30 mg/kg”. Moreover, the “IL-5 levels in BALF” value (100 mg/kg p.o.) is reported as “significantly reduced”. Also, under “30 and 100 mg/kg p.o. (FIG. 4)”, the “IL-13 in BALF, dose dependence” value is recorded as “dose-dependent decrease”. Moreover, the “CCL-22 in BALF, dose dependence” value (30 and 100 mg/kg p.o. (FIG. 6)) is “dose-dependent decrease”. Also, the “reduction of eosinophilic inflammation (BALF) with respect to the OVA group” value (30 and 100 mg/kg p.o., 24 hours after last ovalbumin challenge) is listed as “statistically significant reduction of eosinophilic inflammation only at 100 mg/kg”.

Regarding `C[C@@H]1C[C@H]2[C@@H]3CCC4=CC(=O)C=C[C@]4(C)[C@@]3(F)[C@@H](O)C[C@]2(C)[C@@]1(O)C(=O)CO` [Dexamethasone, dexamethasone, reference compound], for the setting “3 mg/kg p.o. daily, 24 hours after last ovalbumin challenge, vs OVA group”, the “percentage of reduction in the eosinophilic cell count in BALF” value was determined as 92%.

The values above are taken from patent US12098139B2, “Chemokine receptor modulators and uses thereof” (RAPT Therapeutics, Inc., priority 2018, dated 2024).
